Legend:
Format in all cases: cell-based
IKZF1 (Ikaros) = IKZF1 (Ikaros) (Homo sapiens (Human), UniProt Q13422+Q96SW2); assay: IKZF1 reporter degradation assay (HEK 293T IKZF1-mNeonGreen reporter cell line); conditions: HEK 293T reporter cells, 24 hour incubation
From the text: (§1) Polycistronic plasmids were constructed for the mammalian expression of fluorescent reporter fusions of human transcription factors IKZF1 (Ikaros), IKZF2 (Helios), and IKZF3 (Aiolos). The respective protein sequences had their C-terminal end joined to a GGGGS linker repeated three times followed by mNeonGreen, P2A sequence, and mScarlet. The DNA sequences of the open reading frames are as follows:
(§2) IKZF1, IKZF2, and IKZF3 constructs were cloned into the UCOE Hygromycin expression vectors (Millipore Sigma). Reporter constructs were transfected using cationic lipid reagents into adherent HEK 293T cells and stable integrants were selected by treatment with 200 μg/mL hygromycin B. Clonal populations were obtained from the population of stable integrants either by limiting dilution or fluorescence activated cell sorting.
(§3) The clonal stable cell lines were maintained under constant 200 μg/mL hygromycin B selection while being passaged for use in the degradation assays. […] The fluorescence intensity of the IKZF1/2/3-mNeonGreen (FITC channel) and mScarlet (PE channel) reporters were routinely analyzed by flow cytometry to confirm consistent expression levels between experiments.
(§4) The IKZF1/IKZF2/IKZF3 degradation assays were carried out by harvesting the HEK 293T reporter cell lines and resuspending the cells in media formulated for reduced background fluorescence (FluoroBrite; Thermo Fisher). The respective cell lines were seeded at a density of 4000 cells/well into black-walled 384-well optical grade assay tissue culture plates. The cells were incubated overnight at 37° C. to allow for attachment to the assay plate. Dilutions of the compounds were prepared in DMSO from 10 mM compound stocks. The assay plates were treated with appropriate concentrations of the compounds by dispensing the DMSO dilutions in quadruplicate wells with an upper limit of 0.5% final DMSO.
(§5) After 24 hour incubation with the compounds, the assay plates were imaged on an ImageXpress Pico microscopy system (cells maintained at 37° C. during imaging) to obtain the fluorescent readouts. The assay plates were imaged in the FITC and Tetramethylrhodamine (TRITC) channels to obtain the mNeonGreen fluorescence intensity (reporter degradation data) and mScarlet fluorescence intensity (for cell segmentation). 293T-IKZF1 and 293T-IKZF3 reporter cell lines were imaged with exposures of 500 milliseconds (ms) for both FITC and TRITC channels, while the 293T-IKZF2 reporter cell line was imaged with exposures of 1000 ms for FITC and 1250 ms for TRITC. The resulting data was analyzed with Cell Reporter Xpress software using the 2-channel cell scoring analysis with a “percent positive” readout. The TRITC channel was selected for the “nuclei” segmentation with a threshold of 20 while the FITC channel was selected for the “Marker 1” segmentation and a threshold of 100 for the IKZF and IKZF3 reporter lines. […] The minimum segmentation width was set to 6 micrometers and the maximum segmentation width was set to 15 micrometers for all cell lines. The DC50 calculations were determined by regression to best fit four-parameter logistic curves using GraphPad Prism.

IKZF2 (Helios) = IKZF2 (Helios) (Homo sapiens (Human), UniProt Q96SW2+Q9UKS7); assay: IKZF2 reporter degradation assay (HEK 293T IKZF2-mNeonGreen reporter cell line); conditions: 24 hour incubation; for inhibition at 1 µM: HEK-293T, 24 h
Sequence of IKZF2 (Helios) (Q9UKS7 whole entry): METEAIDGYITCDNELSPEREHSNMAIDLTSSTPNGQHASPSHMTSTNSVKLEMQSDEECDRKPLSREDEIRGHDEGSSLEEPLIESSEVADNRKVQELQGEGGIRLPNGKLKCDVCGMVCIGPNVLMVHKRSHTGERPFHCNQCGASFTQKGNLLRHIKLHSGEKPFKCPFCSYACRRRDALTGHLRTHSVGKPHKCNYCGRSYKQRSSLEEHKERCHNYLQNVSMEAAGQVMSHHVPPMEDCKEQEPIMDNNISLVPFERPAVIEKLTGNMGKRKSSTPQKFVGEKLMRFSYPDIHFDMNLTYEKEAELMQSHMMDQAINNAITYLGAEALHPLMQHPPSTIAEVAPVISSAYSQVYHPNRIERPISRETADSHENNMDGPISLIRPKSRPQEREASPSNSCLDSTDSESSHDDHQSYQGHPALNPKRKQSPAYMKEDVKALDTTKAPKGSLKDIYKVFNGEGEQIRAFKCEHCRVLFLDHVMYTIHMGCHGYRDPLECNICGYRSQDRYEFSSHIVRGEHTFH
Sequence of IKZF2 (Helios) (Q96SW2 whole entry): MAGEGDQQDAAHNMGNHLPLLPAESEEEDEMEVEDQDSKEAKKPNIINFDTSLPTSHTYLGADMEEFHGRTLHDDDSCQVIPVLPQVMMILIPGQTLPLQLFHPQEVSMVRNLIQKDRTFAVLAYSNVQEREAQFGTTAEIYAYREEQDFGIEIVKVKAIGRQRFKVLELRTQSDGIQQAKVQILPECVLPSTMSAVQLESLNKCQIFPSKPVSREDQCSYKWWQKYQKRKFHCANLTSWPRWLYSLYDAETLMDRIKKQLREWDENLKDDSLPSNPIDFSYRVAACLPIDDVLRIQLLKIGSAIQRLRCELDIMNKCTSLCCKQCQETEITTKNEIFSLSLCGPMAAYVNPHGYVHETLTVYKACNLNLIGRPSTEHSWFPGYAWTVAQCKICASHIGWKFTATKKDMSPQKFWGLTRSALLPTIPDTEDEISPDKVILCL
Sequence of IKZF2 (Helios) (Q16531 whole entry partner): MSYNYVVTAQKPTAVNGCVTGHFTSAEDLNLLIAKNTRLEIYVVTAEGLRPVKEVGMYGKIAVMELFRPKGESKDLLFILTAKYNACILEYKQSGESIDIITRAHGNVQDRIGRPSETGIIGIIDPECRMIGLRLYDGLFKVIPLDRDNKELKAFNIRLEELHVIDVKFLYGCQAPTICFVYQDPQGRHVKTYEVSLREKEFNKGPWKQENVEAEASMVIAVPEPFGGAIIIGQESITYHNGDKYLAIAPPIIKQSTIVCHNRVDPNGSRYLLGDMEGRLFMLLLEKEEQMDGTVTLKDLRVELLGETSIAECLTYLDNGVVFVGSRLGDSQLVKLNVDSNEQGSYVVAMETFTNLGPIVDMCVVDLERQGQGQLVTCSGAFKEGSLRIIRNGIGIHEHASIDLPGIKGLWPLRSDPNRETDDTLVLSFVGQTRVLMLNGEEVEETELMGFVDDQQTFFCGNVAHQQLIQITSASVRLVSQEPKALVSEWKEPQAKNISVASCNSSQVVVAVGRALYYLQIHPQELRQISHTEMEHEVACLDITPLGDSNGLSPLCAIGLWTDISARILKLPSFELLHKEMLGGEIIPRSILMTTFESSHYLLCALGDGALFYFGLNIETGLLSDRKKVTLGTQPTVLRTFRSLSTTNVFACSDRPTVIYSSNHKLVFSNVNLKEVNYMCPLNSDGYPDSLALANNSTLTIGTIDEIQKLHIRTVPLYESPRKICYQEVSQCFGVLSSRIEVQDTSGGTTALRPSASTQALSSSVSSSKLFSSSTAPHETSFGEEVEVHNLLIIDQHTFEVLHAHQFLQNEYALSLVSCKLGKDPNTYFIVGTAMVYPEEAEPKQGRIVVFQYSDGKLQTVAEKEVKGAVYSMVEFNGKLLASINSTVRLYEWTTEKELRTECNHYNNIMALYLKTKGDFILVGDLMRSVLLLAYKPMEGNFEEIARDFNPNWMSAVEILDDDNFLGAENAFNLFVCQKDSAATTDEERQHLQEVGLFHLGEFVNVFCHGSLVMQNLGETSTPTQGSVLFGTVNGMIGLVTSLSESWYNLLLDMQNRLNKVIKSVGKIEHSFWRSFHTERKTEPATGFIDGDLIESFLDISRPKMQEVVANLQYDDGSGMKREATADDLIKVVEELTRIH
From the text: as §1, §2, §3, §4, §5

GSPT1 = GSPT1 (Homo sapiens (Human), UniProt P15170+Q96SW2); assay: GSPT1 reporter degradation assay (HEK293 hGSPT1 HiBiT-tagged cells); conditions: 24 hour incubation
Sequence of GSPT1 (P15170 whole entry): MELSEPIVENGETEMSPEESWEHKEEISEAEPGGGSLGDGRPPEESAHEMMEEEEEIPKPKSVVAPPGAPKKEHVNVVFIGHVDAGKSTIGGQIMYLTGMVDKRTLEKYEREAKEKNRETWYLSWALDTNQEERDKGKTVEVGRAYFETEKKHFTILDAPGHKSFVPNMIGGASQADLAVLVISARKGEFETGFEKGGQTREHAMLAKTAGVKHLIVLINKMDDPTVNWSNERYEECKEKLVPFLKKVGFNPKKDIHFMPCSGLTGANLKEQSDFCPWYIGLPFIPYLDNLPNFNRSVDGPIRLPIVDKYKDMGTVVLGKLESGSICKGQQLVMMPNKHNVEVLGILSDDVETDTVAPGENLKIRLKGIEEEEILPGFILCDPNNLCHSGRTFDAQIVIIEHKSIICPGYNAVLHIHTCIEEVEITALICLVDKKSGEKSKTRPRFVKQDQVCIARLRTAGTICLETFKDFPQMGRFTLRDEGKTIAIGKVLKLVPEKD
Sequence of GSPT1 (Q96SW2 whole entry): as the sequence (Q96SW2 whole entry) above
Sequence of GSPT1 (Q16531 whole entry partner): as the sequence (Q16531 whole entry partner) above
Protocol: HEK293_hGSPT1_HiBiT-tagged cells were generated using CRISPR-Cas12a technology. Briefly, ˜400,000 HEK293 cells were transiently co-transfected with precomplexed ribonuclear proteins (RNPs) consisting of […] of crRNA (IDT), […] of Cas12a protein (IDT), 3 μg of ssODN donor (IDT; AltRTM modifications), 78 pmol of electroporation enhancer (IDT), and 200 ng of pMaxGFP (Lonza). The transfection was performed via nucleofection (Lonza, 4D-Nucleofector X-unit) using solution P3 and program CM-130 in a (20 μL) cuvette. Five days post-nucleofection, cells were single-cell-sorted for GFP+ (transfected) cells by FACs in 96-well plates and clonally selected. Clones were screened and verified for the desired modification via targeted deep sequencing using gene-specific primers with partial Illumina adapter overhangs as previously described. In brief, clonal cell pellets were harvested, lysed, and used to generate gene-specific amplicons with partial Illumina adapters in PCR #1. Amplicons were indexed in PCR #2 and pooled with other targeted amplicons for other loci to create sequence diversity. Additionally, 10% PhiX sequencing control V3 (Illumina) was added to the pooled amplicon library prior to running the sample on a Miseq Sequencer System (Illumina) to generate paired 2×250 bp reads. Samples were demultiplexed using the index sequences, fastq files were generated, and NGS analysis was performed using CRIS.py.
The GSTP1 degradation assay was carried out by harvesting the HEK 293T reporter cell lines and resuspending the cells in media formulated for reduced background fluorescence (FluoroBrite; Thermo Fisher). The respective cell lines were seeded at a density of 8,000 cells/well into white-opaque 384-well optical grade assay tissue culture plates (Greiner 781080-20). The cells were incubated overnight at 37° C. to allow for attachment to the assay plate. Dilutions of the compounds were prepared in DMSO from 10 mM compound stocks. […] Plates were centrifuged at 320×g for 2 minutes at room temperature, and subsequently incubated at 37° C.
After 24 hour incubation with the compounds, the plates were allowed to cool to room temperature for 10 minutes. 30 μL of HiBiT lytic buffer+1:50 HiBiT substrate Solution were added to each well. Plates were centrifuged at 320×g for 2 minutes at room temperature and then incubated with shaking at room temperature for 10 minutes covered with foil. Plates were read on a CLARIOstar microplate reader (BMG LabTech), measuring at 450 nm (donor emission) and 610 nm or 630 nm (acceptor emission). The DC50 values were determined by regression to best fit four-parameter logistic curves using GraphPad Prism.

IKZF3 (Aiolos) = IKZF3 (Aiolos) (Homo sapiens (Human), UniProt Q96SW2+Q9UKT9); assay: IKZF3 reporter degradation assay (HEK 293T IKZF3-mNeonGreen reporter cell line); conditions: HEK 293T reporter cells, 24 hour incubation
Sequence of IKZF3 (Aiolos) (Q9UKT9 whole entry): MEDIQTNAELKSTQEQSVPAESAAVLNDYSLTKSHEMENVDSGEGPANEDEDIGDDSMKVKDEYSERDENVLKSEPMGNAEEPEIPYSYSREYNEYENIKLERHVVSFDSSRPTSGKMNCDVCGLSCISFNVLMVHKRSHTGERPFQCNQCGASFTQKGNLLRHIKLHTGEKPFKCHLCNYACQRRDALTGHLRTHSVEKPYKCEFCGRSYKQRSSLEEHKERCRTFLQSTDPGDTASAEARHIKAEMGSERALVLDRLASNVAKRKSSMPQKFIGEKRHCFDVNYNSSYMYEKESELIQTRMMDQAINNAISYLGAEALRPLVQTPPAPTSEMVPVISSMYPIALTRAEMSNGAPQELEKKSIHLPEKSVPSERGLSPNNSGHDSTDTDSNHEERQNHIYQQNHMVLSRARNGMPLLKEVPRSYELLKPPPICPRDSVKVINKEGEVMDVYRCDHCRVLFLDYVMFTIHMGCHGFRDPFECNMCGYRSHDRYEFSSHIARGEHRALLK
Sequence of IKZF3 (Aiolos) (Q96SW2 whole entry): as the sequence (Q96SW2 whole entry) above
Sequence of IKZF3 (Aiolos) (Q16531 whole entry partner): as the sequence (Q16531 whole entry partner) above
From the text: as §1, §2, §3, §4, §5

[1] = Table 3, HEK 293T reporter cells
[2] = second (untitled) table after Table 3

Sequence of IKZF1 (Ikaros) (Q13422 whole entry, the tested form may be a part): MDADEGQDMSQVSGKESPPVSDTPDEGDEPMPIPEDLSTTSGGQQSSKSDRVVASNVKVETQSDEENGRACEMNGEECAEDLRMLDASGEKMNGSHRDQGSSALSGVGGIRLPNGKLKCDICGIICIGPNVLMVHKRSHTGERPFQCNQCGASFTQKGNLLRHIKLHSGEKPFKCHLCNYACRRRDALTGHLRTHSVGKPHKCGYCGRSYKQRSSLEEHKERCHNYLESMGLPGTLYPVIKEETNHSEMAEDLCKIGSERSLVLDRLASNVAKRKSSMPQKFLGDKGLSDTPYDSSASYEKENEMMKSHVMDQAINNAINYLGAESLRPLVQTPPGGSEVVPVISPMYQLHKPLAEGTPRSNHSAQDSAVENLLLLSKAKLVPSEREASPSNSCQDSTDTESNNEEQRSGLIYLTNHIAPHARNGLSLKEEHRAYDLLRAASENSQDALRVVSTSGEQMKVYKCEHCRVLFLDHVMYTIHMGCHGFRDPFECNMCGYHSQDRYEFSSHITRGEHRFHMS
Sequence of IKZF1 (Ikaros) (Q96SW2 whole entry, the tested form may be a part): as the sequence (Q96SW2 whole entry) above
Sequence of IKZF1 (Ikaros) (Q16531 whole entry partner, the tested form may be a part): as the sequence (Q16531 whole entry partner) above

Row | DC50 (IKZF1 (Ikaros)) [µM] | DC50 (IKZF2 (Helios); HEK 293T reporter cells) [µM] | inhibition at 1 µM (IKZF2 (Helios); [1]) [%] | inhibition at 1 µM (IKZF2 (Helios); [2]) [%] | DC50 (GSPT1) [µM] | DC50 (IKZF3 (Aiolos)) [µM] | SMILES
1 | > 30 | 0.01 | 86.7 | 86.7 | > 30 | > 30 | O=C1CCC(N2Cc3c(ccc(O[C@H]4CCCC[C@@H]4N4CC(C5CCC5)C4)c3F)C2=O)C(=O)N1 (stereo partly drawn) [Compound 25, 3-(5-(((1S,2S)-2-(3-cyclobutylazetidin-1-yl)cyclohexyl)oxy)-4-fluoro-1-oxoisoindolin-2-yl)piperidine-2,6-dione]
2 | > 30 | 0.009 | 82.6 | 82.6 | > 30 | > 30 | O=C1CCC(N2Cc3cc(O[C@H]4CCC[C@@H]4N4CC(C5CC5)C4)ccc3C2=O)C(=O)N1 (stereo partly drawn) [Compound 22, 3-(5-(((1S,2S)-2-(3-cyclopropylazetidin-1-yl)cyclopentyl)oxy)-1-oxoisoindolin-2-yl)piperidine-2,6-dione]
3 | > 30 | 0.001 | 95.5 | 95.5 | > 30 | > 30 | CC(C)OC1CCC(C2CN([C@H]3CCCC[C@@H]3Oc3ccc4c(c3)CN(C3CCC(=O)NC3=O)C4=O)C2)CC1 (stereo partly drawn) [Compound 16, 3-(5-(((1S,2S)-2-(3-((cis)-4-isopropoxycyclohexyl)azetidin-1-yl)cyclohexyl)oxy)-1-oxoisoindolin-2-yl)piperidine-2,6-dione]
4 | > 30 | 0.004 | 85.1 | 85.1 | > 30 | > 30 | O=C1CCC(N2Cc3cc(O[C@H]4CCCC[C@@H]4N4CC(C5CCCCC5)C4)ccc3C2=O)C(=O)N1 (stereo partly drawn) [Compound 1, 3-(5-(((1S,2S)-2-(3-cyclohexylazetidin-1-yl)cyclohexyl)oxy)-1-oxoisoindolin-2-yl)piperidine-2,6-dione]

— US20240287037A1, “CYCLOALKYL COMPOUNDS AND PHARMACEUTICAL COMPOSITIONS THAT MODULATE IKZF2” (Plexium, Inc., priority 2021, published 2024)
